Measured values published in patent US11980658B2, “Immunotherapeutic molecules and uses thereof” (priority 2012, dated 2024).
“Also recorded” adds a separate entry of the source. Where no end group is shown, it is not given here.

Key:
Format in all cases: cell-based, human
[1] = tested on: HLA-DR, HLA-DQ, HLA-DP; assay: HLA class II restriction of epitope recognition by TCL (blocking mAbs); details: anti-HLA-DR, -DP or -DQ mAbs
Protocol: (§1) All culturing was performed in RPMI-1640 containing 2 mM L-glutamine, 100 IU/mL penicillin-streptomycin and 5% heat-inactivated human AB serum (Sigma-Aldrich, St Louis, USA) (cRPMI). Antigen-induced TCL proliferation was assessed by ^3H-thymidine (3H-TdR) uptake assays as described (Prickett et al. 2011 supra). A stimulation index (SI; cpm antigen-stimulated T cells/cpm unstimulated T cells) >2.5 was considered positive and all positive responses confirmed in >2 assays. HLA-restriction of epitope recognition by TCL was assessed using monoclonal antibodies (mAb) against HLA-DR (L243), HLA-DQ (SVP-L3) or HLA-DP (B7/21) to block epitope presentation as described (Prickett et al. 2011 supra). To allow detection of peptide-induced CD4+ T-cell proliferation within whole PBMC, 7-day cultures of CFSE-labelled PBMC were set up as described for TCL generation (Prickett et al. 2011 supra). At least 10,000 CD4^+ T cells were analyzed per sample and SI calculated as percentage of CD4^+CFSE^lo (proliferated) cells with antigen/percentage of CD4^+CFSE^lo cells without antigen (background). The detection threshold for a specific response in this assay was assessed by expanding peptide-specific TCL from proliferated CD4^+ cells over a range of SI values for three subjects. Specific TCL could be generated from divided T cells with SI as low as 1.1 in all three subjects (data not shown) allowing designation of an SI>1.1 as positive.
There is no identified HLA-II association with peanut allergy (Shreffler et al. Ann Allergy Asthma Immunol 2006; 96(6):865-9), therefore peptides selected for therapy must bind diverse HLA-II molecules for wide applicability. To determine the HLA-II type presenting each epitope, anti-HLA-DR, -DP or -DQ mAbs were used to block individual epitope presentation to T cells. […] At least two subjects and/or TCL were tested per epitope (FIG. 8).

[2] = tested on: Ara h 1-specific CD4+ T-cell lines (TCL); assay: Antigen-induced TCL proliferation, 3H-thymidine uptake assay; details: for Donor responder frequency for TCL recognition of Ara h 1 20-mer peptides: n=18 peanut-allergic subjects, SI≥2.5
From the text: Ara h 1-specific oligoclonal TCL were generated from peripheral blood mononuclear cells (PBMC) of peanut-allergic subjects using 5,6-carboxyfluorescein diacetate succinimidylester (CFSE)-based methodology (Mannering et al. J Immunol Methods. 2005; 298(1-2):83-92) as described (Prickett et al. 2011 supra), with CPE ([…]), Ara h 1 (10 gg/mL) or 20-mer peptides spanning the Ara h 1 sequence (11 amino acid (aa) overlap (17 aa overlap for the last peptide); Table 5; 10 pg/mL/peptide) as the driving antigens. All TCL were tested for specificity (proliferation) to individual Ara h 1 20-mers (10 pg/mL) as well as CPE ([…]) and/or Ara h 1 (10 pg/mL) Core epitope sequences were mapped within selected 20-mers using peptide sets truncated from the N- or C-terminus of the 20-mer as described (Prickett et al. 2011 supra).
as §1

[3] = tested on: basophils; assay: Basophil activation test (CD63 upregulation by flow cytometry)
Protocol: Basophil activation was assessed by CD63 upregulation detected by flow cytometry as described (Drew et al. J Immunol. 2004; 173(9):5872-9). Positive controls were rabbit anti-human IgE antibody (7.5 ug/mL; DAKO Corporation, CA, USA), N-formyl-methionine-leucine-phenylalanine (fMLP) (0.4 ug/mL; Sigma) and CPE. CPE, Ara h 1 and peptides were tested over a 3-log concentration range (5, 0.5 and 0.05 ug/mL)

Molecule: VEIKEGALMLPHFNSKA (Chemcially synthezised) [(436-452)]
- HLA class II restriction (mAb that blocked epitope recognition) [1]: blocked by anti-HLA-DR for some TCL but by anti-HLA-DQ for others

Molecule: KAMVIVVVNKGTGNLELVAV (Chemcially Synthezised) [compound 51]
- TCL stimulation / recognition (in words) [2]: efficiently stimulated TCL specific for either epitope
- Donor responder frequency for TCL recognition of Ara h 1 20-mer peptides [2]: 33%

Molecule: NNFGKLFEVKPDKKNPQLQ [(409-427), NNFGKLFEVKPDKKNPQLQ]
- Basophil activation (percentage of activated CD63hi basophils) [3]: 8%

Molecule: WSTRSSENNEGVIVKVSKE [(353-371)]
- HLA class II restriction (mAb that blocked epitope recognition) [1]: blocked by anti-HLA-DQ in both subjects tested

Molecule: ALMLPHFNSKAMVIVVVNKG [compound 50]
- Donor responder frequency for TCL recognition of Ara h 1 20-mer peptides [2]: 33%

Molecule: ALMLPHFNSKAMVIVVV (Chemcially synthezised) [(442-458)]
- HLA class II restriction (mAb that blocked epitope recognition) [1]: HLA-DR-restricted

Molecule: GDVFIMPAAHPVAINASS (Chemcially synthezised) [(507-524)]
- HLA class II restriction (mAb that blocked epitope recognition) [1]: blocked by anti-HLA-DR for some TCL but by anti-HLA-DQ for others; also recorded: HLA-DQ restricted

Molecule: FQNLQNHRIVQIEAKPNTLV [(206-225)]
- TCL stimulation / recognition (in words) [2]: efficiently stimulated TCL specific for either epitope

B1: Ara h 1: major peanut allergen, 7S seed storage glycoprotein or vicilin, enriched from CPE by liquid chromatography (protein, listed as Homo sapiens)
chain: MRGRVSPLMLLLGILVLASVSATHAKSSPYQKKTENPCAQRCLQSCQQEPDDLKQKACESRCTKLEYDPRCVYDPRGHTGTTNQRSPPGERTRGRQPGDYDDDRRQPRREEGGRWGPAGPREREREEDWRQPREDWRRPSHQQPRKIRPEGREGEQEWGTPGSHVREETSRNNPFYFPSRRFSTRYGNQNGRIRVLQRFDQRSRQFQNLQNHRIVQIEAKPNTLVLPKHADADNILVIQQGQATVTVANGNNRKSFNLDEGHALRIPSGFISYILNRHDNQNLRVAKISMPVNTPGQFEDFFPASSRDQSSYLQGFSRNTLEAAFNAEFNEIRRVLLEENAGGEQEERGQRRWSTRSSENNEGVIVKVSKEHVEELTKHAKSVSKKGSEEEGDITNPINLREGEPDLSNNFGKLFEVKPDKKNPQLQDLDMMLTCVEIKEGALMLPHFNSKAMVIVVVNKGTGNLELVAVRKEQQQRGRREEEEDEDEEEEGSNREVRRYTARLKEGDVFIMPAAHPVAINASSELHLLGFGINAENNHRIFLAGDKDNVIDQIEKQAKDLAFPGSGEQVEKLIKNQKESHFVSARPQSQSQSPSSPEKESPEKEDQEEENQGGKGPLLSILKAFN
- Basophil activation (percentage of activated CD63hi basophils) [3]: 80-90%
